Measured values taken from patent publication US20200352163A1, “ANTIMICROBIAL MIXTURE CONTAINING 4-(3-ETHOXY-4-HYDROXYPHENYL)BUTAN-2-ONE AND AN AROMATIC ALCOHOL, AND COSMETIC COMPOSITION CONTAINING SAME” (L'OREAL, priority 2017, published 2020).

Key:
Assay in all cases: MIC / FIC synergy test in 96-well microplate, optical density at 620 nm
Assay type in all cases: cell-based
Conditions in all cases: for microbial growth percentage: weight %
[1] = tested on: Candida albicans ATCC 10231
Source text: (§1) FIC Index=(MIC of A with B/MIC of A)+(MIC of B with A/MIC of B)
(§2) with: • MIC of A with B: minimum concentration of product A in the combination A+B which makes it possible to obtain an inhibitory effect; • MIC of B with A: minimum concentration of product B in the combination A+B which makes it possible to obtain an inhibitory effect; • MIC of A: minimum inhibitory concentration of product A alone; • MIC of B: minimum inhibitory concentration of product B alone.
(§3) As regards the combinations tested, MIC of A with B and MIC of B with A are the respective concentrations of A and of B in the combinations which make it possible to obtain a microbial growth percentage of less than or equal to 20%.
(§4) When the FIC index value is less than or equal to 1, it is considered that the combination of test compounds has a synergistic effect.
The microbial strain Candida albicans ATCC 10231 and a double-concentration Sabouraud broth liquid culture medium were used.
(§5) A 96-well microplate and an incubation temprature of 32.5° C. are used.
(§6) The incubation time of the microplate is: • from 18 to 24 h under aerobic conditions for Candida albicans ATCC 10231, Pseudomonas aeruginosa ATCC 9027 and Staphylococcus aureus ATCC 6538; • from 24 to 30 h under aerobic conditions for microbial Aspergillus niger ATCC 6275; • from 24 to 48 h under aerobic conditions for Enterococcus faecalis ATCC 33186.
(§7) A 10% (weight/volume) stock solution was prepared by mixing 1 g of compound in 9 ml of aqueous 1‰ agar solution. Successive dilutions were made with the 1‰ agar solution.
(§8) 50 μl of each of the daughter solutions obtained containing compound A or B are added to the microplate wells. 100 μl of Sabouraud liquid nutrient broth inoculated at double concentration with the Aspergillus niger strain and 50 μl of aqueous 1‰ agar solution are also added thereto.
(§9) 50 μl of each of the daughter solutions obtained containing compound A and 50 μl of each of the daughter solutions obtained containing compound B are added to the microplate wells. 100 μl of Sabouraud liquid nutrient broth inoculated at double concentration with the strain Aspergillus niger are also added thereto.
(§10) A positive microbial growth control was also prepared. The positive microbial growth control corresponds to a mixture of 100 μl of aqueous 1‰ agar solution with 100 μl of Sabouraud liquid nutrient broth inoculated at double concentration with the strain Aspergillus niger in the absence of compounds A and B.
(§11) An absorbance control was performed in parallel on compounds A and B alone. This control corresponds to 100 μl of double concentration sterile Sabouraud liquid nutrient broth+100 μl of double concentration compound A or B.
(§12) In the three cases (absorbance control, growth control and test), the final volume present in each of the microplate wells is 200 μl.
(§13) The test as described above (tests, absorbance control and growth control) was performed again to test the combination A+B on the following strains Enterococcus faecalis, Staphylococcus aureus, Pseudomonas aeruginosa, Candida albicans.

[2] = tested on: Aspergillus niger ATCC 6275
Source text: as §1, §2, §3, §4
The microbial strain Aspergillus niger ATCC 6275, and a double-concentration Sabouraud broth liquid culture medium supplemented with polyoxyethylenated (20 OE) sorbitan monopalmitate (Tween 40 from Croda) and Phytagel© BioReagent were used (i.e. a mixture of 5 g of Phytagel+0.6 g Tween 40+60 g of Sabouraud broth).
as §5, §6, §7, §8, §9, §10, §11, §12
In the two cases (test and control), the inoculum represents the concentration of the Aspergillus niger strain present in the final volume of the wells (200 μl) and is between 2 and 6×10^5 cfu/ml of Aspergillus niger.

[3] = tested on: Enterococcus faecalis ATCC 33186
Source text: as §1, §2, §3, §4
The microbial strain Enterococcus faecalis ATCC 33186 and a double-concentration BHI (Brain Heart Infusion) broth liquid culture medium were used.
as §5, §6, §7, §8, §9, §10, §11, §12, §13

[4] = first concentration giving growth <= 20%

Compound: OCCc1ccccc1 [B2, phenylethyl alcohol]
- microbial growth percentage ([1]; 0.125 B2 alone): 41%
- microbial growth percentage ([1]; 0.25 B2 alone): 7%
- MIC B2 ([1]; B2 alone, first concentration giving growth <= 20%): 0.25%

Compound: OCc1ccccc1 [B3, benzyl alcohol]
- microbial growth percentage ([2]; 0.0125 B3 alone): 94%
- microbial growth percentage ([2]; 0.25 B3 alone): 31%
- microbial growth percentage ([2]; 0.5 B3 alone): 1%
- % MIC of B3 alone [2, 4]: 0.5%
- microbial growth percentage ([3]; 0.25 B3 alone): 77%
- microbial growth percentage ([3]; 0.5 B3 alone): 30%
- microbial growth percentage ([3]; 1 B3 alone): 3%
- % MIC of B3 alone [3, 4]: 1%

Compound: Cc1cc(O)ccc1C(C)C [B4, 4-isopropyl-3-methylphenol]
- microbial growth percentage ([1]; 0.0025 B4 alone): 87%
- microbial growth percentage ([1]; 0.005 B4 alone): 82%
- microbial growth percentage ([1]; 0.01 B4 alone): 73%
- microbial growth percentage ([1]; 0.02 B4 alone): 35%
- microbial growth percentage ([1]; 0.04 B4 alone): 1%
- % MIC of B4 alone [1, 4]: 0.04%
- % MIC of B4 alone [3]: 0.1%
- microbial growth percentage ([3]; 0.0125 B4 alone): 45%
- microbial growth percentage ([3]; 0.025 B4 alone): 44%
- microbial growth percentage ([3]; 0.05 B4 alone): 27%
- microbial growth percentage ([3]; 0.1 B4 alone): 23%
